The results in this text go back to patent publication US10759791B2, “Mammalian and bacterial nitric oxide synthase inhibitors” (Northwestern University, priority 2014, dated 2020).

In one data set the test system is B. subtilis. Kind of data set: Effect of oxidative stress (ACR, H2O2) and NOS inhibitors on B. subtilis survival and growth. In kind it is cell-based, Bacillus subtilis.
The next data set addresses bBiDomain (Bacillus subtilis (strain 168), UniProt O34453). Kind of data set: bNOS activity inhibition with bBiDomain and YumC, nitrite by Griess reaction. Particulars: for % nitrite: inhibitor 30 μM, NOHA 200 μM, 4 min, single time point.
Data set [1] can be described thus: Plasma pharmacokinetics and brain distribution in mice. Particulars: for T1/2: i.v. 2 mg/kg.
Data set [2] concerns the target T1, rat nNOS (Rattus norvegicus (Rat), UniProt P29476). As to the kind of experiment: Hemoglobin capture assay, Ki (Example 159). The settings on record: for Selectivity n/i: rat nNOS vs murine iNOS. In kind it is biochemical.
The target in the next data set is bsNOS (Bacillus subtilis (strain 168), UniProt O34453). Kind of data set: Imidazole displacement, spectral binding constant KS. The settings on record: 50 μM H4B.
Sequence of bsNOS (O34453 whole entry): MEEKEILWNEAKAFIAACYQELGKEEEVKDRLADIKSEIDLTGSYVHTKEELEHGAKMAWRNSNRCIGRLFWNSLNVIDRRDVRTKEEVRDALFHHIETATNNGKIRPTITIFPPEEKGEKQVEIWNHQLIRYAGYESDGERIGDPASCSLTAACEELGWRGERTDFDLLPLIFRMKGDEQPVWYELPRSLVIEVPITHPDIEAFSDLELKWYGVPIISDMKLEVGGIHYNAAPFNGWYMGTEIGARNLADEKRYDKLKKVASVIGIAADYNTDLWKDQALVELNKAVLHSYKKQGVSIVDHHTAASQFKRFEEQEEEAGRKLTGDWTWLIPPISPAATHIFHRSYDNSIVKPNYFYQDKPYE
For the next data set, the target named is CYP2C9 (Homo sapiens (Human), UniProt P11712). Kind of data set: in vitro. Particulars: microsomes, pH 7.4.
Sequence of CYP2C9 (P11712 whole entry): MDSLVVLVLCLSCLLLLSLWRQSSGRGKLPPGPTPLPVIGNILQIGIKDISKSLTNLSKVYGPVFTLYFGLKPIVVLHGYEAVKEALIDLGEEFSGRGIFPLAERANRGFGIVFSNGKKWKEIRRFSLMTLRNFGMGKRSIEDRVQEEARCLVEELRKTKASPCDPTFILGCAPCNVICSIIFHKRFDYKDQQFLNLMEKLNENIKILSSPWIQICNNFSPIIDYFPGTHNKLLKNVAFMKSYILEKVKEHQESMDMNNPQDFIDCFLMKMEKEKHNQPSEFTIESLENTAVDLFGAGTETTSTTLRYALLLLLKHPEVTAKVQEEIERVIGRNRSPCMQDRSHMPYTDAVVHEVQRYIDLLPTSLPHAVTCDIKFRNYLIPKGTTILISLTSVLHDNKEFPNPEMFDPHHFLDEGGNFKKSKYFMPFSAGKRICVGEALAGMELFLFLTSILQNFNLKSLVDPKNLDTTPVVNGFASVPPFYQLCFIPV
Test in data set [3]: not given
The source holds these as a separate data set.

The target in data set [4] is T2, CYP2C8 (Homo sapiens (Human), UniProt P10632). As to the kind of experiment: in vitro. Particulars: microsomes, pH 7.4.
T2 sequence (P10632 whole entry): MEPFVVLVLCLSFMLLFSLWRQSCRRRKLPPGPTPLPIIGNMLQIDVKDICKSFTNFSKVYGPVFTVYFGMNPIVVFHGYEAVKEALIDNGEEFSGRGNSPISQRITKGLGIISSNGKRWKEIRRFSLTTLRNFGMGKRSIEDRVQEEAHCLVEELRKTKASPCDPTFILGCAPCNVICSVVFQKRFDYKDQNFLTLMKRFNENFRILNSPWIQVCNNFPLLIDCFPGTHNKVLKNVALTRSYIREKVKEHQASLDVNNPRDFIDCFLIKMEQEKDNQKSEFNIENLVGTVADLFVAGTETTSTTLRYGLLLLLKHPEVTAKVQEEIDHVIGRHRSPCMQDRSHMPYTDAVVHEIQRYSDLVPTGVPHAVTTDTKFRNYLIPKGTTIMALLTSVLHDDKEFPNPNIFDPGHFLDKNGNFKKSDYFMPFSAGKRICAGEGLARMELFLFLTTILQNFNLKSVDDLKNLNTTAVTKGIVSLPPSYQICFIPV
Data set [5] in a line: in vitro. The settings on record: human, microsomes, pH 7.4.
A further data set addresses CYP2D6 (Homo sapiens (Human), UniProt P10635). Kind of data set: CYP inhibition assay, human liver microsomes. The settings on record: pH 7.4. Background: Liver microsomes are a subcellular fraction often used to study metabolism.
The nature of data set [6]: in vitro. The settings on record: human, pH 7.4.
The next data set concerns the target CYP1A2 (Homo sapiens (Human), UniProt P05177). Kind of data set: CYP inhibition assay, human liver microsomes.
In another data set the target is CYP2B6 (Homo sapiens (Human), UniProt P20813). Kind of data set: in vitro. Particulars: microsomes, pH 7.4.
Data set [7] addresses T2, CYP2C8. The settings on record: 10 μM.
Data set [8] concerns the target T1, rat nNOS. Kind of data set: Hemoglobin capture assay, Ki (Tables 11-12). Particulars: ratio of Ki values.
A further data set has as its system S. aureus UAMS1182. Kind of data set: Effect of H2O2 and NOS inhibitors on S. aureus. In kind it is cell-based, Staphylococcus aureus. The settings on record: for H2O2-mediated killing of S. aureus on co-treatment: 200 μM inhibitor + 5 mM H2O2; for S. aureus survival, inhibitor alone: 200 μM, WT and Δnos strains.
Data set [9] concerns the target T3, human nNOS (Homo sapiens (Human), UniProt P29475). Kind of data set: Hemoglobin capture assay, Ki (Example 159). In kind it is biochemical.
For a further data set, the target named is human eNOS (Homo sapiens (Human), UniProt P29474). As to the kind of experiment: Hemoglobin capture assay, Ki (Example 159). In kind it is biochemical.
The next data set has as its target bovine eNOS (Bos taurus (Bovine), UniProt P29473). Kind of data set: Hemoglobin capture assay, Ki (Example 159). In kind it is biochemical.
Data set [10] addresses T1, rat nNOS. Kind of data set: Oxyhemoglobin NO assay, Ki (Table 9). In kind it is biochemical. The settings on record: for e/n: ratio Ki eNOS to Ki rat nNOS; for i/n: ratio Ki iNOS to Ki rat nNOS.
In data set [11] the target is T3, human nNOS. As to the kind of experiment: Oxyhemoglobin NO assay, Ki (Table 9). In kind it is biochemical.
Setting [12] is: human, microsomes, 0 h, 1 μM, pH 7.4.

Values joined by “and” are separate entries in the source; they are usually repeats but may differ in a detail not shown here. Identical values can stand only once. Like-named read-outs stand apart in the source and are kept apart here. Marks after values point to notes of the source that are not given here.

Sequence of bBiDomain (O34453 other isoform, or with tags, fused parts or gaps): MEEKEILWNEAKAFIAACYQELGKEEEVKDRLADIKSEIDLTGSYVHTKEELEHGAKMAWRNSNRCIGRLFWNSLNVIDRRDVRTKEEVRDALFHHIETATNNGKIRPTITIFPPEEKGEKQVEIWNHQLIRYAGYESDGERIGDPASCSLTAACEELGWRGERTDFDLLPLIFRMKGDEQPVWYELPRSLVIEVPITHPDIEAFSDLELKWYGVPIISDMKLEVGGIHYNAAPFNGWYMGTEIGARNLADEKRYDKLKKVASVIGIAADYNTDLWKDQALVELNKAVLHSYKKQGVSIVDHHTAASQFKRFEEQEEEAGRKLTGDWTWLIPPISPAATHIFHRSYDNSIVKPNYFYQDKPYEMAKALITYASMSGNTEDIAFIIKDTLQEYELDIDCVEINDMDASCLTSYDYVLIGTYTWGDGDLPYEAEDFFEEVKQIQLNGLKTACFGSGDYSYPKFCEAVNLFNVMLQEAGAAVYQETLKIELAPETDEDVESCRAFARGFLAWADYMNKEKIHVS
Sequence of CYP1A2 (P05177 whole entry): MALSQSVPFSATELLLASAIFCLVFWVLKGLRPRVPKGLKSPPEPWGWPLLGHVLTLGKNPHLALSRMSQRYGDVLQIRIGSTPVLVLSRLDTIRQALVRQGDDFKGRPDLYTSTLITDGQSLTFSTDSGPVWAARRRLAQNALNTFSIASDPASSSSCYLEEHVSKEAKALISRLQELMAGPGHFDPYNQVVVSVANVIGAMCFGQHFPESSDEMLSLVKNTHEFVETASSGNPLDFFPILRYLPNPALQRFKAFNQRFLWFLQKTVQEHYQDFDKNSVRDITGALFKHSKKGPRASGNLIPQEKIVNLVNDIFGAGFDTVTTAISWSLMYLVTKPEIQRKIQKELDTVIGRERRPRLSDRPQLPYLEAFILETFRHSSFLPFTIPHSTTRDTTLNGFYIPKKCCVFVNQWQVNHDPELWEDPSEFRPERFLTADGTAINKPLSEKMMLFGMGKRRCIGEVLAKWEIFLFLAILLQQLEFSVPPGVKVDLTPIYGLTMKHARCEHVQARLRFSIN
Sequence of CYP2D6 (P10635 whole entry): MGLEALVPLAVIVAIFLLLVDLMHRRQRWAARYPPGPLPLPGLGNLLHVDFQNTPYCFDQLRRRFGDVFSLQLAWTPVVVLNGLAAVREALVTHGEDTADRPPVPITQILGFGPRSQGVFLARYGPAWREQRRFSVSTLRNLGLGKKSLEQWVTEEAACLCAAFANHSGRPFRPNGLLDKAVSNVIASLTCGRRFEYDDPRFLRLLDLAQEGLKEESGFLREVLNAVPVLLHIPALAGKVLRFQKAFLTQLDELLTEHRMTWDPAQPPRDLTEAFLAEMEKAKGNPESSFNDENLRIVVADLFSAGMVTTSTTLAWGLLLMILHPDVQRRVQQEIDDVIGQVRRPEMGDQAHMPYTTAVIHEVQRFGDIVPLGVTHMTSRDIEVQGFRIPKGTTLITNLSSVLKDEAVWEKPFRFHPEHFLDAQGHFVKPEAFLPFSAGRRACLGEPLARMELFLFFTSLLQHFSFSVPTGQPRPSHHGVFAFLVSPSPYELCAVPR

In the case of `N=C(NCCC[C@H](N)C(=O)O)N[N+](=O)[O-]` [L-NNA, N^ω-nitro-L-arginine], in the data set with B. subtilis (NOS inhibitor + ACR, 30 min), the “% survival of wt B. subtilis with ACR” value was “bacterial % survival decreased in the presence of ACR”. Further, the “% survival of wt B. subtilis with H2O2” value in the data set with B. subtilis (NOS inhibitor + H2O2, 30 min) was “trivial effects on bacterial survival”. For the same compound, on bBiDomain, the “% nitrite” value is 40.9±5.3%.

With `CNCCN(C)c1cc(C#N)cc(CCc2cc(C)cc(N)n2)c1` [Compound 19c, 3-(2-(6-Amino-4-methylpyridin-2-yl)ethyl)-5-(methyl(2-(methylamino)ethyl)amino)benzonitrile], the figures for the T1/2 in [1] (brain) and in [1] (plasma) were 24.80 h and 1.1 h, respectively. Besides, the AUCinf in data set [1] (p.o. 10 mg/kg, plasma) was determined as 182.46 ng·h/mL.

On rat nNOS [2], `COCCCNc1cncc(CCc2cc(C)cc(N)n2)c1` [Compound 14e, 6-(2-(5-(3-Methoxypropylamino)pyridin-3-yl)ethyl)-4-methylpyridin-2-amine] yielded a Ki of 558 nM and a Selectivity n/i of 13.

On to `NC(=NCCC[C@H](N)C(=O)O)NO` [NOHA, N-omega-hydroxy-L-arginine], for which the “fold difference in binding (KS) in presence vs absence of H4B” value on bsNOS turned out to be 1.2 fold.

With `CNCCCc1cncc(CCc2cc(C)cc(N)n2)c1` [Compound 14j, 4-Methyl-6-(2-(5-(3-(methylamino)propyl)pyridin-3-yl)ethyl)pyridin-2-amine], the “% Remaining, 90 minutes (−NADPH)” value (1 μM) is 78^b % and 78%. Besides, for the setting “1 μM”, the “CLh, int” value came to 10.4 mL/min/kg. Moreover, the “% Remaining, 90 minutes (Buffer)” value (1 μM, heat inactivated microsomes minus NADPH) is 95^b % and 95%. Moreover, the “% of the compound lost” value (1 μM, in 60 min in the absence of NADPH or in 90 min in the presence of NADPH) turned out to be 23%. In addition, the “Percentage in HLM, Minus NADPH, 0 min” value under setting [12] was determined as 100%. Further, under setting [12], the “Percentage in HLM, Plus NADPH, 0 min” value is 100%. Moreover, for the setting “human, microsomes, […], 1 μM, pH 7.4”, the “Percentage in HLM, Plus NADPH, 45 min” value came out at 87%. In addition, for the setting “minus NADPH (buffer control)”, the “Percentage in HLM, Heat inactivated microsomes, 0 min” value was 100%. For the same compound, the inhibition at 10 min, 10 µM at CYP2C9 came out at 0%; against CYP2D6, 6%; against CYP1A2 (human, microsomes, pH 7.4), 9%. Also, the “% compound remaining at 4 h” value in data set [3] (37° C.) turned out to be 90%. For the same compound, the figures for the inhibition at 10 µM against CYP2C8 [4] and against CYP2B6 were 2% and 8%, respectively. The same compound registered a half-life at 1 μM in “in vitro [5]” greater than 1 h. This compound returned a recovery at 4 h, 5 μM in the data set “in vitro [6]” of 91%.

For the compound `O=c1c(O)c(-c2ccc(O)c(O)c2)oc2cc(O)cc(O)c12` [Quercetin], the “% inhibition CYP2C8” value at CYP2C8 [7] turned out to be 95%.

Turning to `Cc1ccnc(CCc2cccc([C@H](N)Cc3cc(C)cc(N)n3)c2)c1` [Compound 5R, (R)-6-(2-Amino-2-(3-(2-(4-methylpyridin-2-yl)ethyl)phenyl)ethyl)-4-methylpyridin-2-amine], on rat nNOS [8], the e/n was found to be 240 and the i/n is recorded as greater than 22.

On to `Nc1ccc2ccc(CCNCCCc3cccc(F)c3)cc2n1` [Compound 19, reference compound], for which, in the data set on S. aureus UAMS1182, the “H2O2-mediated killing of S. aureus on co-treatment” value is given as “significantly increases the H2O2-mediated killing” and the “S. aureus survival, inhibitor alone” value is “reduced bacterial survival over time”. At bBiDomain, affinity was put at a Ki of 69.7 nM and the “% nitrite” value is reported as 6.1%.

As to `CC(=O)CC(c1ccccc1)c1c(O)c2ccccc2oc1=O` (centres unmarked) [Warfarin, reference compound], the “% compound remaining at 4 h” value in data set [3] (human, plasma, 4 h, 5 μM) is 94%. In the data set “in vitro [6]” (human plasma), this compound had a recovery at 4 h, 5 μM of 100%.

For the compound `COCCCC/C(=N\OCCN)c1ccc(C(F)(F)F)cc1` [Fluvoxamine, reference compound], at CYP1A2 (10 μM), the “% inhibition CYP1A2” value worked out at 95%.

Regarding `Cc1cc(N)nc(CCc2cncc(N3CCOCC3)c2)c1` [Compound 14c, 4-Methyl-6-(2-(5-morpholinopyridin-3-yl)ethyl)pyridin-2-amine], the values for the Ki at rat nNOS [2], on human nNOS [9] and at human eNOS were 547 nM, 862 nM and 42600 nM, respectively. This compound also came in with a Selectivity n/i at rat nNOS [2] of 21. In addition, on human nNOS [9] (human nNOS vs human eNOS), the “Selectivity n/e (human)” value was found to be 49.

For the compound `Cc1cc(N)nc(CCc2cncc(CCCN(C)C)c2)c1` [Compound 14k, 6-(2-(5-(3-(Dimethylamino)propyl)pyridin-3-yl)ethyl)-4-methylpyridin-2-amine], the values for the Ki on human nNOS [9], on bovine eNOS and on human eNOS were 37 nM, 16600 nM and 39500 nM, respectively.

For `Cc1ccnc(CCc2cccc([C@@H](N)Cc3cc(C)cc(N)n3)c2)c1` [Compound 5S, (S)-6-(2-Amino-2-(3-(2-(4-methylpyridin-2-yl)ethyl)phenyl)ethyl)-4-methylpyridin-2-amine], on rat nNOS [8], the e/n is reported as 363 and the i/n is greater than 110.

For the compound `CNCCN(c1cc(F)cc(CCc2cc(C)cc(N)n2)c1)C1CC1` [Compound 23e, N^1-(3-(2-(6-amino-4-methylpyridin-2-yl)ethyl)-5-fluorophenyl)-N^1-cyclopropyl-N^2-methylethane-1,2-diamine], at rat nNOS [10], the e/n was 140.9 and the i/n was determined as 148.7. On human nNOS [11], this compound returned a Ki of 238 nM.

Regarding acriflavine, the “bacterial growth, % of control” value in the data set with B. subtilis (single agent, 500 μM NOS inhibitor or 800 μM ACR) came to 23%.

With `Cc1cc(N)nc(CCc2cc(C#N)cc(N(C)CCNC3CC3)c2)c1` [Compound 21c], on rat nNOS [10], the e/n amounted to 274.0 and the i/n came to 246.6. In addition, the Ki on human nNOS [11] is 378 nM.

As to `Cc1cc(N)nc(-c2ccc(CNCCc3cccc(F)c3)cc2)c1` [Compound 27, 6-(4-(((3-Fluorophenethyl)amino)methyl)phenyl)-4-methylpyridin-2-amine], in the data set with S. aureus UAMS1182, the “H2O2-mediated killing of S. aureus on co-treatment” value was “significantly increases the H2O2-mediated killing” and the “S. aureus survival, inhibitor alone” value is on record as “reduced bacterial survival over time”. On bBiDomain, the Ki was determined as 502 nM and the “% nitrite” value is given as 13.2%.

Consider `CCN(CCNC)c1cc(F)cc(CCc2cc(C)cc(N)n2)c1` [Compound 23d, N^1-(3-(2-(6-Amino-4-methylpyridin-2-yl)ethyl)-5-fluorophenyl)-N^1-ethyl-N^2-methylethane-1,2-diamine], for which, on rat nNOS [10], the e/n stood at 93.2 and the i/n worked out at 109.6. The affinity at human nNOS [11], expressed as Ki, was 139 nM.

Regarding `Cc1cc(N)nc(CCc2cc(F)cc(NCc3cccnc3)c2)c1` [Compound 23g, 6-(3-Fluoro-5-((pyridin-3-ylmethyl)amino)phenethyl)-4-methylpyridin-2-amine], on rat nNOS [10], the e/n is 10.0 and the i/n turned out to be 10.7. On human nNOS [11], this compound displayed a Ki of 255 nM.

In the case of `CNC(=C[N+](=O)[O-])NCCSCc1ccc(CN(C)C)o1` [Ranitidine], in the data set on Caco-2 cells (10 μM, 2 h), the “apparent permeability (Papp) mean A → B” value is given as 0.45 10^−6 cm s^−1 and the “apparent permeability (Papp) mean B → A” value is 1.2 10^−6 cm s^−1. Moreover, the efflux ratio in the data set with Caco-2 cells (Papp (B→A)/Papp (A→B)) is 2.7.

One may read the Ki as the equilibrium dissociation constant of an inhibitor or competing ligand from its target. A lower Ki goes with a stronger hold on the target. Usually inhibition stands for how much of the control response was suppressed. A high value points to strong suppression. By half-life is commonly meant the time needed for the level to fall by half in the phase considered. Higher therefore signals slow decline. The efflux ratio is the permeability from basolateral to apical divided by that in the opposite direction, in the common usage.
